Activity calls are given as the source filed them. The rule behind the calls is not given here.
Tests used:
[1] = Solubility of the compound in saline; format: physicochemical; settings: buffer
[2] = Solubility of compound in 5 percent PBS buffer; format: physicochemical
[3] = Solubility of compound; format: physicochemical
[4] = tested on: HEK293; assay: PROTAC activity at E3 ligase/long BRD4 (unknown origin) expressed in HEK293 cells assessed as induction of BRD4 degradation at 300 to 1000 nM incubated for 18 hrs in presence of thalidomide by Western blot analysis; format: cell-based; settings: Homo sapiens, dose 300-1000 nM
[5] = tested on: HEK293; assay: PROTAC activity at E3 ligase/short BRD4 (unknown origin) expressed in HEK293 cells assessed as induction of BRD4 degradation at 300 to 1000 nM incubated for 18 hrs in presence of thalidomide by Western blot analysis; format: cell-based; settings: Homo sapiens, dose 300-1000 nM
[6] = tested on: HEK293; assay: PROTAC activity at E3 ligase/short BRD4 (unknown origin) expressed in HEK293 cells assessed as induction of BRD4 degradation at 300 to 1000 nM incubated for 18 hrs in presence of MG132 by Western blot analysis; format: cell-based; settings: Homo sapiens, dose 300-1000 nM
[7] = tested on: HEK293; assay: PROTAC activity at E3 ligase/long BRD4 (unknown origin) expressed in HEK293 cells assessed as induction of BRD4 degradation at 300 to 1000 nM incubated for 18 hrs in presence of MLN4924 by Western blot analysis; format: cell-based; settings: Homo sapiens, dose 300-1000 nM
[8] = tested on: HEK293; assay: PROTAC activity at E3 ligase/short BRD4 (unknown origin) expressed in HEK293 cells assessed as induction of BRD4 degradation at 300 to 1000 nM incubated for 18 hrs in presence of MLN4924 by Western blot analysis; format: cell-based; settings: Homo sapiens, dose 300-1000 nM
[9] = tested on: HEK293; assay: PROTAC activity at E3 ligase/short BRD4 (unknown origin) expressed in HEK293 cells assessed as induction of BRD4 degradation at 300 to 1000 nM incubated for 18 hrs by Western blot analysis; format: cell-based; settings: Homo sapiens, dose 300-1000 nM
[10] = tested on: HEK293; assay: PROTAC activity at E3 ligase/long BRD4 (unknown origin) expressed in HEK293 cells assessed as induction of BRD4 degradation at 300 to 1000 nM incubated for 18 hrs by Western blot analysis; format: cell-based; settings: Homo sapiens, dose 300-1000 nM
[11] = tested on: HEK293; assay: PROTAC activity at E3 ligase/long BRD4 (unknown origin) expressed in HEK293 cells assessed as induction of BRD4 degradation at 300 to 1000 nM incubated for 18 hrs in presence of MG132 by Western blot analysis; format: cell-based; settings: Homo sapiens, dose 300-1000 nM

solubility [1] | solubility [2] | solubility [3] | SMILES | Activity [4] | Activity [5] | Activity [6] | Activity [7] | Activity [8] | Activity [9] | Activity [10] | Activity [11]
Insoluble | Insoluble | Insoluble | Cc1sc2c(c1C)C(c1ccc(Cl)cc1)=N[C@@H](CC(=O)NCC#CC(C1CCN(C(=O)COc3cccc4c3C(=O)N(C3CCC(=O)NC3=O)C4=O)CC1)N1CCN(C(=O)COc3cccc4c3C(=O)N(C3CCC(=O)NC3=O)C4=O)CC1)c1nnc(C)n1-2 (some centres undefined) | – | – | – | – | – | – | – | –
– | – | Insoluble | Cc1ncsc1-c1ccc(CNC(=O)[C@@H]2C[C@@H](O)CN2C(=O)[C@@H](NC(=O)CCCCC(=O)NC2CCN(C(C#CCCSc3ccc(C(=O)NCCNC(=O)C[C@@H]4N=C(c5ccc(Cl)cc5)c5c(sc(C)c5C)-n5c(C)nnc54)cc3)C3CCOCC3)CC2)C(C)(C)C)cc1 (some centres undefined) | – | – | – | – | – | – | – | –
Insoluble | Insoluble | – | Cc1sc2c(c1C)C(c1ccc(Cl)cc1)=N[C@@H](CC(=O)NCCNC(=O)c1ccc(SCCC#CC(C3CCOCC3)N3CCC(NC(=O)COc4cccc5c4C(=O)N(C4CCC(=O)NC4=O)C5=O)CC3)cc1)c1nnc(C)n1-2 (some centres undefined) | inactive | inactive | inactive | inactive | inactive | Active | Active | inactive
